{
  "source": "patent US7320806B2",
  "about": "“Compositions and methods for treating NIDDM and other conditions and disorders associated with AMPK regulation” (priority 2003, dated 2008)",
  "key": {"[1]": {"tested_on": "L6 muscle cells", "test": "glucose uptake (2-NBDG) in L6 myotubes", "format": "cell-based", "protocol": "The permeate portion of GMM was tested for glucose uptake in L6 muscle cells. L6 cells were grown as monolayers in Dulbecco's modified Eagle's medium (DMEM) containing 1 mM glutamine, 1 mM pyruvate and 25 mM glucose. The medium was supplemented with 5% fetal calf serum (FCS). Experiments were undertaken in 48-well plates seeded from pre-confluent flasks with 50 000 cells per well. The cells were grown to confluence and the medium was changed to DMEM containing 0.5% FCS and 2.5 mM glucose (L6 Myo Medium) for at least 76 hrs to induce differentiation of L6 cells and formation of L6 myotubes. Myotubes were then incubated with test substances for 30 minutes—Protocol SMM, or in Dulbecco's PBS supplemented with 20 mM Hepes and 2 mM glucose without serum—Serum-free Medium (SFM) Protocol as described by Fryer et al. (Activation of glucose transport by AMP-activated protein kinase via stimulation of Nitric oxide synthase, Diabetes, 49(12), 1978-85, 2000, Fryer LGD, et al, herein incorporated by reference in its entirety.).\nNext, 30 uM of 2-NBDG was added for 2 minutes at 22 C. Subsequently, cell culture medium was removed and cells were washed twice with cold DPBS. Then, cells were lysed in 0.5% SDS. Fluorescence was measured at 466/542 nm (excitation/emission) using 100 ul of cell lysate in 2 ml of water.\nCells were cultured, and treated in L6 Myo Medium (SSM)—SSM Protocol or in serum-free medium (SFM—DPBS containing 20 mM Hepes, 2 mM glucose)—SFM Protocl as described by Fryer et al. Glucose uptake was measured by adding 30 uM of 2-NBDG for 2′ at 22 C. Experiments were performed in duplicates.\nL-NMMA has been used in the experiment to verify whether GMM-induced glucose transport in L6 cells is or is not inhibited by NOS inhibitors, thus mimicking AICAR-induced mechanism of increased glucose transport. […]\nIn FIG. 14, permeate cells were tested to determine whether permeate-induced glucose uptake could be inhibited by L-NMMA at the same concentration as that used for inhibition of the AICA effect on glucose uptake. […] Glucose uptake was measured at 22 C for 2 minutes."}, "[2]": {"tested_on": "hippocampal neurons", "details": "glucose deprivation, chemical hypoxia, glutamate, amyloid beta-peptide; cited from earlier work"}, "[3]": {"tested_on": "astrocytes", "details": "incubation of astrocytes; cited from earlier work"}, "[4]": {"tested_on": "rat epitrochlearis muscles", "details": "30 microU/ml insulin, treated 3.5 h previously; cited from earlier work"}, "[5]": {"details": "administered before ischemia; cited from earlier work"}, "[6]": {"details": "chronic administration; cited from earlier work"}, "[7]": {"tested_on": "3T3-L1 adipocytes", "details": "added at an early phase of differentiation; cited from earlier work"}, "[8]": {"tested_on": "AMPK", "details": "cited from earlier work"}, "[9]": {"tested_on": "AMPK alpha2", "details": "treatment for 10 weeks; cited from earlier work"}},
  "note": "Entries after “also recorded” stand apart in the source; their conditions may differ.",
  "data": [
    {"compound": "insulin", "values": [
      {"measurement": "glucose uptake increase", "setting": "[1]; culture medium supplemented with 0.5% FCS (SSM)", "value": "100-120%"},
      {"measurement": "glucose uptake increase", "setting": "[1]; serum-free medium (DPBS)", "value": "40-50%"}
    ]},
    {"compound": "NC(=O)c1ncn([C@@H]2O[C@H](COP(=O)(O)O)[C@@H](O)[C@H]2O)c1N", "note": "[AICAR, 5′-aminoimidazole 4-carboxamide 1-ribonucleotide]", "values": [
      {"measurement": "neuronal death", "setting": "[2]", "value": "protected hippocampal neurons against death"},
      {"measurement": "ketogenesis from palmitate and carnitine palmitoyltransferase I", "setting": "[3]", "value": "stimulate"},
      {"measurement": "increase in glucose transport in response to insulin versus untreated control muscles", "setting": "[4]", "value": "about twofold greater"},
      {"measurement": "energy metabolism and hepatic injury", "setting": "[5]", "value": "simulated the benefits of preconditioning"},
      {"measurement": "GLUT4 protein expression", "setting": "[6]", "value": "enhance"},
      {"measurement": "HDL cholesterol levels", "setting": "[6]", "value": "increased"},
      {"measurement": "fasting concentrations of glucose and insulin", "setting": "[6]", "value": "decreased"},
      {"measurement": "lowering of systolic blood pressure", "setting": "[6]", "value": "14.6+/−4.3 mmHg"},
      {"measurement": "oral glucose tolerance test", "setting": "[6]", "value": "normalized"},
      {"measurement": "plasma triglyceride levels", "setting": "[6]", "value": "significantly reduced"},
      {"measurement": "differentiation of 3T3-L1 adipocytes", "setting": "[7]", "value": "inhibit the differentiation"},
      {"measurement": "increase in AMPK activity over the resting level", "setting": "[8]", "value": "two- to three-fold increase"}
    ]},
    {"compound": "CN(C)C(=N)N=C(N)N", "note": "[Metformin, metformin]", "values": [
      {"measurement": "AMPK alpha2 activity in the skeletal muscle", "setting": "[9]", "value": "significantly increased"}
    ]},
    {"compound": "CC(=O)O.CNC(=N)NCCC[C@H](N)C(=O)O", "note": "[L-NMMA, NG-methyl-L-arginine, acetate salt]", "values": [
      {"measurement": "effect on permeate/GMM-induced glucose uptake", "setting": "[1]; L-NMMA 300 uM, 30 minutes pre-treatment in DPBS, acetate salt", "value": "inhibits; also recorded: blocks"}
    ]}
  ]
}
